From the supplement of paper PMC10627819

Columns and labels:
B. subtilis 168 [1] = test: fitness (endpoint OD595 vs no drug) (fraction); higher = more growth
Procedure, shortened: (§1)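 Bacterial growth was followed in 384-well plates seeded at OD595 0.01, with 30 µl per well, or 55 µl for S. pneumoniae, in TSB, LB Lennox or CY at 37 °C. OD595 was read every 30 min for 14 h, and each reading had the first reading subtracted as background. Fitness is the background-corrected optical density at entry into stationary phase divided by the robust mean of the no-drug control wells. This ratio is capped at 1.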

S. aureus Newman [2] = test: as above; conditions: one replicate
Procedure, shortened: as §1

B. subtilis 168 [3] = test: Bliss interaction score (quartile over a dose matrix) (fitness difference); higher = more antagonism (negative = synergy)
Procedure, shortened: (§2)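 Quartiles summarise the Bliss score over technical, biological and donor/recipient replicates, where the score is observed minus expected fitness under a product model. Expected fitness uses single-drug values inferred from combination data. Fitness is OD595 at entry into stationary phase over the plate's robust no-drug mean, capped at 1.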

S. aureus DSM 20231 = test: as above
Procedure, shortened: as §2

S. aureus Newman [4] = test: as above
Procedure, shortened: as §2

S. pneumoniae D39V = test: as above
Procedure, shortened: as §2
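For Bliss interaction score (quartile over a dose matrix) in this document: first quartile when negative (synergy) and third quartile when positive (antagonism).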

CO/N=C(\C(=O)N[C@@H]1C(=O)N2C(C(=O)O)=C(COC(N)=O)CS[C@H]12)c1ccco1 [Cefuroxime] + CN[C@@H]1[C@H](O)[C@H](NC)[C@H]2O[C@@]3(O)C(=O)C[C@@H](C)O[C@H]3O[C@@H]2[C@H]1O [Spectinomycin]
fitness
Conditions | first compound 0.04875 µg/mL | first compound 0.0975 µg/mL | first compound 0.195 µg/mL
B. subtilis 168 [1], partner 2 µg/mL | 0.717 | 0.667 | 0.55
B. subtilis 168 [1], partner 4 µg/mL | 0.799 | 0.645 | 0.569
S. aureus Newman [2], partner 4 µg/mL | 0.932 | 0.971 | 0.9
S. aureus Newman [2], partner 8 µg/mL | 0.943 | 0.96 | 0.877
S. aureus Newman [2], partner 16 µg/mL | 0.94 | 0.918 | 0.84

fitness, B. subtilis 168 [1], one replicate
Conditions | first compound 1.562 µg/mL | first compound 3.125 µg/mL | first compound 6.25 µg/mL
partner 2 µg/mL | 0.3 | 0.171 | 0.134
partner 4 µg/mL | 0.234 | 0.0263 | 0.0348
partner 8 µg/mL | 0.0211 | 0 | 0.0048

Conditions | Bliss interaction score
B. subtilis 168 [3] | -0.0976
S. aureus DSM 20231 | 0.116
S. aureus Newman [4] | 0.127
S. pneumoniae D39V | 0.0427

CO/N=C(\C(=O)N[C@@H]1C(=O)N2C(C(=O)O)=C(COC(N)=O)CS[C@H]12)c1ccco1 [Cefuroxime] + COc1ccc(C[C@H](N)C(=O)N[C@H]2[C@@H](O)[C@H](n3cnc4c(N(C)C)ncnc43)O[C@@H]2CO)cc1 [Puromycin]
fitness
Conditions | first compound 0.04875 µg/mL | first compound 0.0975 µg/mL | first compound 0.195 µg/mL
B. subtilis 168 [1], partner 0.39 µg/mL | 0.758 | 0.65 | 0.551
B. subtilis 168 [1], partner 0.78 µg/mL | 0.787 | 0.705 | 0.539
B. subtilis 168 [1], partner 1.56 µg/mL | 0.772 | 0.678 | 0.586
S. aureus Newman [2], partner 0.39 µg/mL | 0.925 | 0.95 | 0.938
S. aureus Newman [2], partner 0.78 µg/mL | 0.969 | 0.945 | 0.956
S. aureus Newman [2], partner 1.56 µg/mL | 0.951 | 0.98 | 0.983

fitness, B. subtilis 168 [1], one replicate
Conditions | first compound 1.562 µg/mL | first compound 3.125 µg/mL | first compound 6.25 µg/mL
partner 0.39 µg/mL | 0.348 | 0.268 | 0.25
partner 0.78 µg/mL | 0.369 | 0.288 | 0.286
partner 1.56 µg/mL | 0.362 | 0.312 | 0.253

Conditions | Bliss interaction score
B. subtilis 168 [3] | 0.1
S. aureus DSM 20231 | 0.127
S. aureus Newman [4] | 0.0321
S. pneumoniae D39V | 0.0887

CO/N=C(\C(=O)N[C@@H]1C(=O)N2C(C(=O)O)=C(COC(N)=O)CS[C@H]12)c1ccco1 [Cefuroxime] + Cc1ncc([N+](=O)[O-])n1CCO [Metronidazole]
fitness
Conditions | partner 0.625 µg/mL | partner 1.25 µg/mL | partner 2.5 µg/mL
B. subtilis 168 [1], first compound 0.04875 µg/mL | 0.741 | 0.767 | 0.715
B. subtilis 168 [1], first compound 0.195 µg/mL | 0.547 | 0.515 | 0.497
S. aureus Newman [2], first compound 0.04875 µg/mL | ≥ 1 | 0.923 | 0.993
S. aureus Newman [2], first compound 0.0975 µg/mL | 0.897 | 0.939 | 0.918
S. aureus Newman [2], first compound 0.195 µg/mL | 0.943 | 0.978 | 0.921

fitness, B. subtilis 168 [1], one replicate
Conditions | first compound 1.562 µg/mL | first compound 3.125 µg/mL | first compound 6.25 µg/mL
partner 0.625 µg/mL | 0.428 | 0.372 | 0.251
partner 1.25 µg/mL | 0.376 | 0.268 | 0.242
partner 2.5 µg/mL | 0.287 | 0.219 | 0.15

Conditions | Bliss interaction score
B. subtilis 168 [3] | 0.0643
S. aureus DSM 20231 | 0.132
S. aureus Newman [4] | -0.0487
S. pneumoniae D39V | -0.0335

CO/N=C(\C(=O)N[C@@H]1C(=O)N2C(C(=O)O)=C(COC(N)=O)CS[C@H]12)c1ccco1 [Cefuroxime] + C[C@@H]1O[C@@H]1P(=O)(O)O [Fosfomycin]
fitness
Conditions | first compound 0.04875 µg/mL | first compound 0.0975 µg/mL | first compound 0.195 µg/mL
B. subtilis 168 [1], partner 1.562 µg/mL | 0.464 | 0.419 | 0.39
B. subtilis 168 [1], partner 3.124 µg/mL | 0.363 | 0.337 | 0.28
B. subtilis 168 [1], partner 6.248 µg/mL | 0.293 | 0.245 | 0.194
S. aureus Newman [2], partner 0.781 µg/mL | 0.803 | 0.7 | 0.632
S. aureus Newman [2], partner 1.562 µg/mL | 0.56 | 0.508 | 0.438
S. aureus Newman [2], partner 3.124 µg/mL | 0.12 | 0.0863 | 0.0573

fitness, B. subtilis 168 [1], one replicate
Conditions | first compound 0.39 µg/mL | first compound 0.78 µg/mL | first compound 1.562 µg/mL | first compound 3.125 µg/mL | first compound 6.25 µg/mL
partner 1.562 µg/mL | 0.344 | 0.301 | 0.179 | 0.136 | 0.113
partner 3.124 µg/mL | 0.331 | 0.235 | 0.17 | 0.122 | 0.133
partner 6.248 µg/mL | 0.189 | 0.131 | 0.0925 | 0.0543 | 0.0496

Conditions | Bliss interaction score
B. subtilis 168 [3] | -0.0716
S. aureus DSM 20231 | 0.0278
S. aureus Newman [4] | 0.0983
S. pneumoniae D39V | 0.0411

CO/N=C(\C(=O)N[C@@H]1C(=O)N2C(C(=O)O)=C(COC(N)=O)CS[C@H]12)c1ccco1 [Cefuroxime] + CC1=C(C(=O)O)N2C(=O)[C@@H](NC(=O)[C@H](N)c3ccccc3)[C@H]2SC1 [Cephalexin]
fitness, B. subtilis 168 [1], one replicate
Conditions | first compound 0.04875 µg/mL | first compound 0.0975 µg/mL | first compound 0.195 µg/mL | first compound 1.562 µg/mL | first compound 3.125 µg/mL | first compound 6.25 µg/mL
partner 0.125 µg/mL | 0.871 | 0.73 | 0.654 | 0.31 | 0.24 | 0.218
partner 0.25 µg/mL | – | – | – | 0.236 | 0.238 | 0.197
partner 0.5 µg/mL | – | – | – | 0.24 | 0.179 | 0.109
partner 1 µg/mL | 0.545 | 0.533 | 0.354 | – | – | –

fitness
Conditions | first compound 0.04875 µg/mL | first compound 0.0975 µg/mL | first compound 0.195 µg/mL
B. subtilis 168 [1], partner 0.25 µg/mL | 0.709 | 0.683 | 0.507
B. subtilis 168 [1], partner 0.5 µg/mL | 0.729 | 0.706 | 0.527
S. aureus Newman [2], partner 0.5 µg/mL | 0.925 | 0.883 | 0.943
S. aureus Newman [2], partner 1 µg/mL | 0.99 | 0.917 | 0.941
S. aureus Newman [2], partner 2 µg/mL | ≥ 1 | 0.967 | 0.949

Conditions | Bliss interaction score
B. subtilis 168 [3] | -0.0402
S. aureus DSM 20231 | 0.0711
S. aureus Newman [4] | -0.0321
S. pneumoniae D39V | 0.0313
